In patent publication US9309263B2, “Fused multi-cyclic sulfone compounds as inhibitors of beta-secretase and methods of use thereof” (AMGEN INC., priority 2013, dated 2016):
Like-named read-outs stand apart in the source and are kept apart here.

Tests used:
[1] = system: pigment epithelium of the rat's eye; details: higher compound dose given for three months; cited from earlier work
[2] = molecular target: Beta Secretase enzyme (BACE) (Homo sapiens, UniProt P56817); assay: In vitro enzymatic BACE FRET assay; type: biochemical; details: average IC50, in vitro enzymatic BACE FRET assay; read-out: BACE1 FRET assay IC50
Outline: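 Cleavage of a quenched 50 nM FRET peptide substrate, read as fluorescence (excitation 488 nm, […]) after 1 h and Tris quench to neutrality. Buffer: 0.05 M acetate pH 4.2 with 10% DMSO and 100 uM genapol. Inhibitor dilutions were pre-incubated 1 h with 0.2 nM enzyme.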

Cathepsin D (Cat D) = Cathepsin D (Cat D) (Homo sapiens, UniProt P07339); assay: In vitro enzymatic Cathepsin D (Cat D) FRET assay; type: biochemical; details: Cathepsin D FRET assay; read-out: CatD IC50
Outline: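 FRET peptide substrate (20 nM) is cleaved by CHO-derived recombinant enzyme (9 nM) for 1 h after a 1 h inhibitor pre-incubation, at pH 3.5 in citrate buffer with 5 mM CHAPS and 10% DMSO. Tris addition ends the reaction; fluorescence measured at 500 nm excitation, 580 nm emission.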

Abeta 40 = assay: In vivo inhibition of beta-secretase: Abeta 40 reduction in CSF and brain of the rat; details: 10 mpk (unless otherwise noted), after 4 hrs
Description: In Vivo Inhibition of Beta-Secretase
Several animal models, including mouse, rat, dog, and monkey, may be used to screen for inhibition of beta-secretase activity in vivo following administration of a test compound sample. Animals used in this invention can be wild type, transgenic, or gene knockout animals. For example, the Tg2576 mouse model, prepared and conducted as described in Hsiao et al., 1996, Science 274, 99-102, and other non-transgenic or gene knockout animals are useful to analyze in vivo inhibition of Amyloid beta peptide (Abeta) production in the presence of inhibitory test compounds. Generally, 2 to 18 month old Tg2576 mice, gene knockout mice or non-transgenic animals are administered test compounds formulated in vehicles, such as cyclodextran, phosphate buffers, hydroxypropyl methylcellulose or other suitable vehicles. One to twenty-four hours following the administration of compound, animals are sacrificed, and brains as well as cerebrospinal fluid (CSF) and plasma are removed for analysis of A-beta levels and drug or test compound concentrations (Dovey et al., 2001, Journal of Neurochemistry, 76, 173-181) Beginning at time 0, animals are administered by oral gavage, or other means of delivery such as intravenous injection, an inhibitory test compound of up to 100 mg/kg in a standard, conventional formulation, such as 2% hydroxypropyl methylcellulose, 1% Tween80. A separate group of animals receive 2% hydroxypropyl methylcellulose, 1% Tween80 alone, containing no test compound, and serve as a vehicle-control group. At the end of the test period, animals are sacrificed and brain tissues, plasma or cerebrospinal fluid are collected. Brains are either homogenized in 10 volumes (w/v) of 0.2% diethylamine (DEA) in 50 mM NaCl (Best et al., 2005, Journal of Pharmacology and Experimental Therapeutics, 313, 902-908), or in 10 volumes of 0.5% TritonX-100 in Tris-buffered saline (pH at about 7.6). Homogenates are centrifuged at 355,000 g, 4° C. for 30 minutes. CSF or brain supernatants are then analyzed for the presence of A-beta peptide by specific sandwich ELISA assays based on ECL (Electrochemiluminescence) technology. For example, rat Abeta40 is measured using biotinylated-4G8 (Signet) as a capture antibody and Fab40 (an in-house antibody specific to the C-terminal of Abeta40) as a detection antibody. For example, 4 hours after administration of 30 mg/kg oral dose of the test compound in 2% hydroxypropyl methylcellulose, 1% Tween80 (pH2.2) to 200 g male Sprague Dawley rats, amyloid beta peptide levels are measured for reduction by X % and Y % in cerebrospinal fluid and brain, respectively, when compared to the levels measured in the vehicle-treated or control […].
Actual vehicles used: Oral: 2% HPMC, 1% Tween80, pH 2.2
• IV: 5% EtOH, 45% Propylene Glycol in 5% Dextrose
The compounds of the invention may be shown to reduce the formation and/or deposition of amyloid beta peptide in the cerebrospinal fluid (CSF) as well as in the brain of a mouse or rat at either 3 mpk, 10 mpk or 30 mpk (mpk=mg compound per kg weight of the animal) dosing concentrations after 4 hrs.

[3] = system: Aβ 40 in conditioned medium of cells stably expressing Amyloid Precursor Protein (APP); assay: In vitro BACE cell-based assay (Aβ 40 sandwich ELISA); details: Homo sapiens, HEK293; average IC50, HEK cell assay, Aβ 40 readout
Outline: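 Aβ40 in conditioned medium measured by pAb40/biotin-6E10 sandwich ELISA with time-resolved europium fluorescence, after 24 h exposure of stable APP cells to compounds (10-point series starting 100 μM or 10 μM; 0.1% DMSO). IC50 fitted from percent of control against concentration.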

Sequence of Beta Secretase enzyme (BACE) (P56817 46-501): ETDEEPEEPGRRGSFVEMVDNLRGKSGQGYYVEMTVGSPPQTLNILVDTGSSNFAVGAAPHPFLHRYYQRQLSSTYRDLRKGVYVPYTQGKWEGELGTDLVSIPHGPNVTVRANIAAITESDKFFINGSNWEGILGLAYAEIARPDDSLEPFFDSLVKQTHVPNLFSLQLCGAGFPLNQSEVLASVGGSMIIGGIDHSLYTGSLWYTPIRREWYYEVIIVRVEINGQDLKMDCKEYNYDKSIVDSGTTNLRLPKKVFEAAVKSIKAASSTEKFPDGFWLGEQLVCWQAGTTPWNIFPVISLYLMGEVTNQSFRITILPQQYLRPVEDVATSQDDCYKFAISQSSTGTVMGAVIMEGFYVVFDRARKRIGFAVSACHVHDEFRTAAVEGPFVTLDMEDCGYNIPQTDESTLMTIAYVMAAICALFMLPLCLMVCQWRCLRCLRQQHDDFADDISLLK
Sequence of Cathepsin D (Cat D) (P07339 65-412, species assumed): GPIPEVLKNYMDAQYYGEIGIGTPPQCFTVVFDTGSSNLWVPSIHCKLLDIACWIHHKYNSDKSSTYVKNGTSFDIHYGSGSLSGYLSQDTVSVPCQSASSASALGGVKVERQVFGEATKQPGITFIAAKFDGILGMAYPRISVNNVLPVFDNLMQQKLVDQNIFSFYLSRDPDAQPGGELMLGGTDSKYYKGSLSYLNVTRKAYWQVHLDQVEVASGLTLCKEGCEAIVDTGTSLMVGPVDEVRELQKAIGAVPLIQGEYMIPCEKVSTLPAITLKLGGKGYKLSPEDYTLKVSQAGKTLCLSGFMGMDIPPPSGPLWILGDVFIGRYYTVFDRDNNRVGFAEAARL

Row | Compound | toxicology finding in the eye [1] | IC50 [2] [nM] | IC50 (Cathepsin D (Cat D)) [µM] | inhibition in vivo at 10 mg/kg (Abeta 40; Abeta 40 in CSF of the rat, read-out: % reduction of rat CSF levels at 10 pmk) [%] | inhibition in vivo at 10 mg/kg (Abeta 40; Abeta 40 in brain of the rat, read-out: % reduction of rat brain levels at 10 mpk) [%] | IC50 [3] [nM]
1 | C[C@@]1(c2cc(-c3cncnc3)c(F)cc2F)CCSC(N)=N1 [LY 2811376] | damaged the pigment epithelium of the rat's eye |  |  |  |  | 
2 | C[C@H]1C[C@@H]2[C@](C)(N=C(N)C(C)(C)S2(=O)=O)c2cc(Nc3nccc4nc(OCc5ncco5)cnc34)ccc2O1 [Example 138, (4aR,6S,11bR)-3,3,6,11b-tetramethyl-N^~10^~-(2-(1,3-oxazol-2-ylmethoxy)pyrido[3,4-b]pyrazin-5-yl)-4a,5,6,11b-tetrahydro-3H-[1]benzoxepino[4,5-b][1,4]thiazine-2,10-diamine 4,4-dioxide] |  | 4 | 173 | 46 | 38 | 1
